Consider 42 molecules from patent US9284323B2, “Naphthalene acetic acid derivatives against HIV infection” (Gilead Sciences, Inc., priority 2012, dated 2016).

The assay deals with HIV-IIIb. Description: Test A: Antiviral Assays in MT4 Cells. It counts as cell-based. The note with it: MT-4 cells infected with HIV-IIIb, 5 days incubation, CellTiter-Glo readout. The protocol:
The antiviral properties of a compound disclosed herein may be determined using Test A described below.
Test A: Antiviral Assays in MT4 Cells
For the antiviral assay utilizing MT-4 cells, 0.4 μL of […] test concentration of 3-fold serially diluted compound in DMSO was added to 40 μL of cell growth medium (RPMI 1640, 10% FBS, 1% penicillin/Streptomycin, 1% L-Glutamine, 1% HEPES) in each well of 384-well assay plates (10 concentrations) in quadruplicate.
1 mL aliquots of 2×10e6 MT-4 cells are pre-infected for 1 and 3 hrs respectively, @ 37° C. with 25 μL (MT4) or of either cell growth medium (mock-infected) or a fresh 1:250 dilution of an HIV-IIIb concentrated ABI stock (0.004 m.o.i. for MT4 cells). Infected and uninfected cells are diluted in cell growth medium and 35 μL of 2000 (for MT4) cells is added to each well of the assay plates.
Assay plates were then incubated in a 37° C. incubator. After 5 days of incubation, 25 μl of 2× concentrated CellTiter-Glo™ Reagent (catalog # G7573, Promega Biosciences, Inc., Madison, Wis.) was added to each well of the assay plate. Cell lysis was carried out by incubating at room temperature for 2-3 min and then chemiluminescence was read using the Envision reader (PerkinElmer).

Where [1] appears, read: Human immunodeficiency virus 1, IIIB, MT4, 120 h, Table II.
The mark [2] stands for this setting: Human immunodeficiency virus 1, IIIB, MT4, 120 h, Table I.

For the setting “Table II”, `Cc1cc2cc(-c3cncnc3C)ccc2c(-c2ccc3c4c(ccnc24)CCO3)c1[C@H](OC(C)(C)C)C(=O)O` (atropisomer, axis not shown) [Example 56] returned a 50% effective concentration (EC50) of 30.5 nM.

Consider `Cc1cc2cc(-c3cncnc3C)ccc2c(-c2ccc3c4c(ccnc24)CCO3)c1[C@H](OC(C)(C)C)C(=O)O` (atropisomer, axis not shown) [Example 57], for which the EC50 (Table II) is 10000 nM. `Cc1cc2cc(-c3c(C)ncnc3C)ccc2c(-c2ccc3c4c(ccnc24)CCO3)c1[C@H](OC(C)(C)C)C(=O)O` (atropisomer, axis not shown) [Example 58] came in with a half-maximal effective concentration (EC50) (Table II) of 7760 nM. The same measure, in the same setting: for `Cc1cc2cc(-c3c(C)ncnc3C)ccc2c(-c2ccc3c4c(ccnc24)CCO3)c1[C@H](OC(C)(C)C)C(=O)O` (atropisomer, axis not shown) [Example 59] the value was 471 nM. With `COc1ncc(-c2ccc3c(-c4ccc5c6c(ccnc46)CCO5)c([C@H](OC(C)(C)C)C(=O)O)c(C)cc3c2)cn1` (atropisomer, axis not shown) [Example 60], under setting [1], the concentration for a half-maximal effect (EC50) came out at 12.2 nM. Under setting [1], `Cc1cc2cc(-c3cncnc3C(C)C)ccc2c(-c2ccc3c4c(ccnc24)CCO3)c1[C@H](OC(C)(C)C)C(=O)O` (atropisomer, axis not shown) [Example 62] registered an EC50 of 41.1 nM.

On to `Cc1ccc2c(-c3ccc4c5c(ccnc35)CCO4)c([C@@H](OC(C)(C)CF)C(=O)O)c(C)cc2c1` (atropisomer, axis not shown) [Example 63], for which a half-maximal effect under setting [1] (EC50) was put at 1680 nM. Under setting [1], `Cc1ccc2c(-c3ccc4c5c(ccnc35)CCO4)c([C@H](OC(C)(C)CF)C(=O)O)c(C)cc2c1` (atropisomer, axis not shown) [Example 64] gave an EC50 of 8.72 nM. The same measure, in the same setting: as for `Cc1cc2cc(-c3cncnc3)ccc2c(-c2ccc3c4c(ccnc24)CCO3)c1[C@H](OC(C)(C)C)C(=O)O` (atropisomer, axis not shown) [Example 66], the figure is 9.88 nM. On the same count and under the same terms, as for `Cc1cc2c3c(ccc2c(-c2ccc4c5c(ccnc25)CCO4)c1[C@H](OC(C)(C)C)C(=O)O)COC3` (atropisomer, axis not shown) [Example 67], the figure is 52.3 nM.

Under “Table II”, `Cc1cc2cccc(F)c2c(-c2ccc3c4c(ccnc24)CCO3)c1[C@H](OC(C)(C)C)C(=O)O` (atropisomer, axis not shown) [Example 68] had a 50% effective concentration (EC50) of 2940 nM. The same measure, in the same setting: as for `Cc1cc2cccc(F)c2c(-c2ccc3c4c(ccnc24)CCO3)c1[C@H](OC(C)(C)C)C(=O)O` (atropisomer, axis not shown) [Example 69], the figure is 11.3 nM. In turn, `Cc1cc2c(C(F)F)c(C)ccc2c(-c2ccc3c4c(ccnc24)CCO3)c1[C@H](OC(C)(C)C)C(=O)O` (atropisomer, axis not shown) [Example 70] displayed an EC50 under setting [1] of 11.6 nM.

Regarding `Cc1cc2c(C)c(-c3cnc(N4CCN(C)CC4)nc3)ccc2c(-c2ccc3c4c(ccnc24)CCO3)c1[C@H](OC(C)(C)C)C(=O)O` (atropisomer, axis not shown) [Example 71], the response under setting [1] was half-maximal at 4.23 nM (EC50). Molecule `Cc1cc2c(C)c(-c3cnc(N(C)C)nc3)ccc2c(-c2ccc3c4c(ccnc24)CCO3)c1[C@H](OC(C)(C)C)C(=O)O` (atropisomer, axis not shown) [Example 72] came in with an EC50 (Table II) of 7020 nM. For `Cc1cc2c(C)c(-c3cnc(N(C)C)nc3)ccc2c(-c2ccc3c4c(ccnc24)CCO3)c1[C@H](OC(C)(C)C)C(=O)O` (atropisomer, axis not shown) [Example 73], the EC50 (Table II) was determined as 8.95 nM. On the same count and under the same terms, as for `Cc1cc2c(C)c(-c3cnc(N)nc3)ccc2c(-c2ccc3c4c(ccnc24)CCO3)c1[C@H](OC(C)(C)C)C(=O)O` (atropisomer, axis not shown) [Example 75], the figure is 6.95 nM; as for `CC(C)(C)O[C@H](C(=O)O)c1c(-c2ccc3c4c(ccnc24)CCO3)c2ccccc2c2occc12` (atropisomer, axis not shown) [Example 76], 117 nM.

With `CC(C)(C)O[C@H](C(=O)O)c1c(-c2ccc3c4c(ccnc24)CCO3)c2ccccc2c2occc12` (atropisomer, axis not shown) [Example 77], under “Table II”, the EC50 worked out at 32400 nM. Still for that read-out and setting: for `CC(C)(C)O[C@H](C(=O)O)c1c2c(c3ccccc3c1-c1ccc3c4c(ccnc14)CCO3)OCC2` (atropisomer, axis not shown) [Example 78] the value was 45.8 nM; for `CC(C)(C)O[C@H](C(=O)O)c1c2c(c3ccccc3c1-c1ccc3c4c(ccnc14)CCO3)OCC2` (atropisomer, axis not shown) [Example 79], 9910 nM; for `Cc1cc2c(C)c(-c3cncnc3)ccc2c(-c2ccc3c4c(ccnc24)CCO3)c1[C@H](OC(C)(C)C)C(=O)O` (atropisomer, axis not shown) [Example 80], 21.1 nM.

With `Cc1cc2c(C)c(-c3cncnc3)ccc2c(-c2ccc3c4c(ccnc24)CCO3)c1[C@H](OC(C)(C)C)C(=O)O` (atropisomer, axis not shown) [Example 81], the EC50 (Table II) was determined as 3370 nM.

`COc1c(C)c([C@H](OC(C)(C)C)C(=O)O)c(-c2ccc3c4c(ccnc24)CCO3)c2ccccc12` (atropisomer, axis not shown) [Example 82] registered an EC50 under setting [1] of 43.2 nM. Same read-out and setting: as for `Cc1c([C@H](OC(C)(C)C)C(=O)O)c(-c2ccc3c4c(ccnc24)CCO3)c2ccccc2c1O` (atropisomer, axis not shown) [Example 83], the figure is 14.9 nM.

As to `Cc1c([C@H](OC(C)(C)C)C(=O)O)c(-c2ccc3c4c(ccnc24)CCO3)c2ccccc2c1C(F)F` (atropisomer, axis not shown) [Example 86], the concentration for a half-maximal effect (EC50) (Table II) is 131 nM.

For the setting “Table II”, `Cc1c([C@H](OC(C)(C)C)C(=O)O)c(-c2ccc3c4c(ccnc24)CCO3)c2ccccc2c1C(F)F` (atropisomer, axis not shown) [Example 87] gave a concentration for a half-maximal effect (EC50) of 1310 nM. In turn, `CC(=O)Nc1c(C)c([C@H](OC(C)(C)C)C(=O)O)c(-c2ccc3c4c(ccnc24)CCO3)c2ccccc12` (atropisomer, axis not shown) [Example 89] gave a concentration for a half-maximal effect (EC50) under setting [1] of 218 nM. Turning to `CC(C)(C)O[C@H](C(=O)O)c1c(-c2ccc3c4c(ccnc24)CCO3)c2ccccc2c2[nH]ncc12` (atropisomer, axis not shown) [Example 90], the EC50 under setting [1] was determined as 366 nM. Under setting [1], `Cc1cc2c(N)cccc2c(-c2ccc3c4c(ccnc24)CCO3)c1[C@H](OC(C)(C)C)C(=O)O` (atropisomer, axis not shown) [Example 91] displayed an EC50 of 11.7 nM.

As to `Cc1c([C@H](OC(C)(C)C)C(=O)O)c(-c2ccc3c4c(ccnc24)CCO3)c2ccccc2c1N` (atropisomer, axis not shown) [Example 93], the 50% effective concentration (EC50) under setting [1] was 7.92 nM. Still for that read-out and setting: for `Cc1cc2ccccc2c(-c2ccc3c4c(ccnc24)CCO3)c1[C@H](OC(C)(C)CCCCS(N)(=O)=O)C(=O)O` (atropisomer, axis not shown) [Example 95] the value was 386 nM. In the case of `Cc1cc2ccccc2c(-c2ccc3c4c(ccnc24)CCO3)c1[C@H](OC(C)(C)CCF)C(=O)O` (atropisomer, axis not shown) [Example 96], where the note is “Table II”, the concentration giving a half-maximal response (EC50) worked out at 6420 nM. Still for that read-out and setting: as for `Cc1cc2ccccc2c(-c2ccc3c4c(ccnc24)CCO3)c1[C@H](OC(C)(C)CCF)C(=O)O` (atropisomer, axis not shown) [Example 97], the figure is 43 nM.

Consider `Cc1cc2ccccc2c(-c2ccc3c4c(ccnc24)CCO3)c1[C@@H](OC(C)(C)CCl)C(=O)O` (atropisomer, axis not shown) [Example 98], for which the concentration giving a half-maximal response (EC50) under setting [1] was found to be 19400 nM.

Take `Cc1cc2ccccc2c(-c2ccc3c4c(ccnc24)CCO3)c1[C@H](OC(C)(C)CCl)C(=O)O` (atropisomer, axis not shown) [Example 99]: the half-maximal effective concentration (EC50) under setting [1] came out at 40.5 nM. Same read-out and setting: as for `Cc1cc2ccccc2c(-c2ccc3c4c(ccnc24)CCO3)c1[C@@H](OC(C)(C)CF)C(=O)O` (atropisomer, axis not shown) [Example 101], the figure is 4740 nM. Still for that read-out and setting: for `Cc1cc2ccccc2c(-c2ccc3c4c(ccnc24)CCO3)c1[C@H](OC(C)(C)CF)C(=O)O` (atropisomer, axis not shown) [Example 102] the value was 18 nM. Molecule `Cc1cc2ccccc2c(-c2ccc3c4c(ccnc24)CCO3)c1[C@@H](OC(C)(CF)CF)C(=O)O` (atropisomer, axis not shown) [Example 104] gave an EC50 under setting [1] of 2950 nM.

As to `Cc1cc2ccccc2c(-c2ccc3c4c(ccnc24)CCO3)c1[C@H](OC(C)(CF)CF)C(=O)O` (atropisomer, axis not shown) [Example 105], a half-maximal response under setting [1] (EC50) required 15.4 nM. `Cc1cc2ccc(C#CC(C)(O)c3ccccc3)cc2c(-c2ccc(Cl)cc2)c1[C@H](OC(C)(C)C)C(=O)O` (stereo in doubt) [Example 14, (S)-2-tert-butoxy-2-(1-(4-chlorophenyl)-7-((R)-3-hydroxy-3-phenylbut-1-ynyl)-3-methylnaphthalen-2-yl)acetic acid] returned an EC50 under setting [2] of 56 nM.

For the molecule `Cc1cc2ccc(C#CC(C)(O)c3ccc(F)cc3)cc2c(-c2ccc(Cl)cc2)c1[C@H](OC(C)(C)C)C(=O)O` (stereo partly drawn) [Example 8, (2S)-2-tert-butoxy-2-(1-(4-chlorophenyl)-7-(3-(4-fluorophenyl)-3-hydroxybut-1-ynyl)-3-methylnaphthalen-2-yl)acetic acid], the EC50 under setting [2] stood at 120 nM.
